Reference: ChEMBL document CHEMBL3856231 (J Med Chem, 2016)
Calls of active or inactive are those of the source. The calls are words filed in the database; no cut-off is given here.

Tests used:
[1] = Drug level in plasma of FAK expressing human CWR22 cells xenografted Nu/Nu mouse at 55 mg/kg, po administered as single dose measured at 24 hrs by LC-MS/MS analysis; format: ADME, organism-based
[2] = Volume of distribution in Sprague-Dawley rat at 1 mg/kg, iv by LC/MS/MS analysis; format: ADME, organism-based; conditions: in vivo
Mus musculus [3] = assay: Toxicity in SCID-Beige mouse xenografted with human HCC827 cells expressing activated FAK assessed as body weight loss at 30 to 55 mg/kg, po bid administered for 28 days measured every 2 to 3 days; format: organism-based; conditions: in vivo
[4] = Drug level in tumor of FAK expressing human CWR22 cells xenografted Nu/Nu mouse at 55 mg/kg, po administered as single dose measured at 24 hrs by LC-MS/MS analysis; format: ADME, organism-based, Neoplasm; conditions: read-out: Drug uptake
[5] = Half life in Sprague-Dawley rat at 1 mg/kg, iv by LC/MS/MS analysis; format: ADME, organism-based; conditions: in vivo
[6] = Apparent permeability from apical to basolateral side in human Caco2 cells; format: ADME, cell-based; conditions: Caco-2
SUP-M2 [7] = assay: Induction of apoptosis assessed as caspase 3/7 activation in human SUP-M2 cells expressing NPM-ALK; format: functional, cell-based
[8] = Dose normalized AUC in Sprague-Dawley rat at 5 mg/kg, po by LC/MS/MS analysis; format: ADME, organism-based; conditions: in vivo
CTG-0142 = assay: Antitumor activity against human CTG-0142 cells expressing activated FAK xenografted in mouse assessed as tumor stasis at 55 mg/kg, po bid administered for 28 days measured during compound dosing; format: functional, organism-based
[9] = Drug level in plasma of FAK expressing human CWR22 cells xenografted Nu/Nu mouse at 55 mg/kg, po administered as single dose measured at 2 hrs by LC-MS/MS analysis; format: ADME, organism-based
[10] = (§1) Cytotoxicity against human NCI-H3122 cells expressing EML4-ALK assessed as cell growth inhibition; format: functional, cell-based
NCI-H3122 = assay: as §1; format: functional, cell-based
Mus musculus [11] = assay: Inhibition of NPM-ALK phosphorylation in human SUP-M2 cells xenografted in mouse at 30 mg/kg, po administered as single dose measured upto 12 hrs; format: functional, organism-based
NCI-H2228 [12] = assay: Antitumor activity against human NCI-H2228 cells expressing EML4-ALK xenografted in SCID-Beige mouse assessed as reduction in tumor volume at 30 mg/kg, po bid administered for 11 days measured during compound dosing; format: functional, organism-based
[13] = Half life in CD-1 mouse at 1 mg/kg, iv by LC/MS/MS analysis; format: ADME, organism-based; conditions: in vivo
[14] = AUC (0 to infinity) in CD-1 mouse at 1 mg/kg, iv by LC/MS/MS analysis; format: ADME, organism-based; set-up: dose 1 mg/kg, time infinity, route intravenous; conditions: in vivo
[15] = Antitumor activity against human CTG-0785 cells expressing activated FAK xenografted in mouse assessed as tumor growth inhibition at 55 mg/kg, po bid administered for 13 days measured during compound dosing; format: functional; conditions: CTG-0785, po, 312 h, read-out: TGI
Mus musculus [16] = assay: Toxicity in SCID-Beige mouse xenografted with human HCC827 cells expressing activated FAK assessed as overt toxicity at 30 to 55 mg/kg, po bid administered for 28 days; format: organism-based; conditions: in vivo, 672 h
[17] = Drug level in tumor of NPM-ALK expressing human SUP-M2 cells xenografted mouse at 30 mg/kg, po administered as single dose measured at 2 hrs by LC-MS/MS analysis; format: ADME, organism-based, Neoplasm; conditions: read-out: Drug uptake
[18] = (§2) Cytotoxicity against human NCI-H2228 cells expressing EML4-ALK assessed as cell growth inhibition; format: functional, cell-based
NCI-H2228 [19] = assay: as §2; format: functional, cell-based
[20] = Volume of distribution in CD-1 mouse at 1 mg/kg, iv by LC/MS/MS analysis; format: ADME, organism-based; conditions: in vivo
[21] = AUC (0 to 48 hrs) in Sprague-Dawley rat plasma at 30 mg/kg, po by LC/MS/MS analysis; format: ADME, organism-based; set-up: time < 48 hr, dose 30 mg/kg, route oral
[22] = Drug level in tumor of FAK expressing human CWR22 cells xenografted Nu/Nu mouse at 55 mg/kg, po administered as single dose measured at 2 hrs by LC-MS/MS analysis; format: ADME, organism-based, Neoplasm; conditions: read-out: Drug uptake
[23] = Half life in CD-1 mouse liver microsomes by LC/MS/MS analysis; format: ADME
[24] = Clearance in cynomolgus monkey at 1 mg/kg, iv by LC/MS/MS analysis; format: ADME, organism-based, Macaca fascicularis; conditions: in vivo
[25] = AUC (0 to infinity) in Sprague-Dawley rat at 5 mg/kg, po by LC/MS/MS analysis; format: ADME, organism-based; set-up: dose 5 mg/kg, time infinity, route oral; conditions: in vivo
[26] = Half life in cynomolgus monkey at 1 mg/kg, iv by LC/MS/MS analysis; format: ADME, organism-based, Macaca fascicularis; conditions: in vivo
[27] = Tmax in Sprague-Dawley rat at 5 mg/kg, po by LC/MS/MS analysis; format: ADME, organism-based; conditions: in vivo
[28] = Ratio of total drug level in Sprague-Dawley rat brain to plasma at 30 mg/kg, po; format: ADME, organism-based; conditions: brain and plasma, read-out: BPR
[29] = Cytotoxicity against human KARPAS299 cells expressing NPM-ALK assessed as cell growth inhibition; format: functional, cell-based; conditions: KARPAS-299
SUP-M2 [30] = assay: Antitumor activity against human SUP-M2 cells expressing NPM-ALK xenografted in po dosed SCID-Beige mouse assessed as reduction in tumor volume administered twice daily for 12 days measured during compound dosing; format: functional, organism-based
NCI-H2228 [31] = assay: Antitumor activity against human NCI-H2228 cells expressing EML4-ALK xenografted in SCID-Beige mouse assessed as reduction in tumor re-emergence at 30 and 55 mg/kg, po bid for 11 days followed by switching of drug schedule to 55 mg/kg, po qd on day 12 up to day 40 and measured on day 80; format: functional, organism-based
[32] = Drug level in plasma of NPM-ALK expressing human SUP-M2 cells xenografted mouse at 30 mg/kg, po administered as single dose measured at 2 hrs by LC-MS/MS analysis; format: ADME, organism-based
[33] = Drug level in plasma of FAK expressing human CWR22 cells xenografted Nu/Nu mouse at 55 mg/kg, po administered as single dose measured at 6 hrs by LC-MS/MS analysis; format: ADME, organism-based
[34] = Cmax in Sprague-Dawley rat brain at 30 mg/kg, po by LC/MS/MS analysis; format: ADME, organism-based; set-up: dose 30 mg/kg, route oral
[35] = Drug level in tumor of NPM-ALK expressing human SUP-M2 cells xenografted mouse at 30 mg/kg, po administered as single dose measured at 24 hrs by LC-MS/MS analysis; format: ADME, organism-based, Neoplasm; conditions: read-out: Drug uptake
IBC = assay: Antitumor activity against human IBC cells xenografted in SCID mouse; format: functional
Mus musculus [36] = assay: Inhibition of FAK phosphorylation in human CWR22 cells xenografted in Nu/Nu mouse at 55 mg/kg, po administered as single dose by immunoblot analysis; format: functional, organism-based; conditions: TDE = time-dependent effect
[37] = Volume of distribution in cynomolgus monkey at 1 mg/kg, iv by LC/MS/MS analysis; format: ADME, organism-based, Macaca fascicularis; conditions: in vivo
[38] = Cmax in Sprague-Dawley rat at 5 mg/kg, po by LC/MS/MS analysis; format: ADME, organism-based; set-up: dose 5 mg/kg, route oral; conditions: in vivo
[39] = Clearance in CD-1 mouse at 1 mg/kg, iv by LC/MS/MS analysis; format: ADME, organism-based; conditions: in vivo

For CNC(=O)c1ccccc1Nc1nc(Nc2ccc3c(c2OC)CCC[C@H](N2CCN(CCO)CC2)C3)ncc1Cl [CEP-37440], the concentration at 24 h [1] was 1190 ng/mL, the Vd [2] was 0.8 L/kg and the Activity (Mus musculus [3]) was “Non-Toxic”. For the same molecule, the concentration at 24 h [4] was 8680 ng/g, the half-life [5] was 2 h and the Papp A→B [6] was greater than 1 ×10⁻⁶ cm/s. The Activity (SUP-M2 [7]) was “Active”, the AUC/dose [8] was 1672 ng·h/mL and the Activity (CTG-0142) was “Active”. For the same molecule, the concentration at 2 h [9] was 4130 ng/mL, the IC50 [10] was 1780 nM and the “growth inhibition (GI)” value (NCI-H3122) was “Dose-dependent effect”. For the same molecule, the inhibition (Mus musculus [11]) was “Active”, the Activity (NCI-H2228 [12]) was “Active” and the half-life [13] was 3 h. For the same molecule, the AUC(0-inf) [14] was 1610 ng·h/mL, the inhibition in vivo at 55 mg/kg [15] was 70% and the Activity (Mus musculus [16]) was “Non-Toxic”. For the same molecule, the concentration at 2 h [17] was 6040 ng/g, the IC50 [18] was 2900 nM and the “growth inhibition (GI)” value (NCI-H2228 [19]) was “Dose-dependent effect”. It also gave a Vd [20] of 2.7 L/kg, an AUC(0-t) at 48 h [21] of 31500 ng·h/mL and a concentration at 2 h [22] of 6070 ng/g. For the same molecule, the half-life [23] was 0.667 h, the clearance [24] was 30 mL/min/kg and the AUC(0-inf) [25] was 8360 ng·h/mL. The half-life [26] was 5.4 h, the Tmax [27] was 3.3 h and the Kp [28] was 1.5 to 2. For the same molecule, the IC50 [29] was 131 nM, the Activity (SUP-M2 [30]) was “Dose-dependent effect” and the Activity (NCI-H2228 [31]) was “Active”. It also gave a concentration at 2 h [32] of 4740 ng/mL, a concentration at 6 h [33] of 3790 ng/mL and a Cmax [34] of 3160 ng/g. The concentration at 24 h [35] was 8200 ng/g, the Activity (IBC) was “Dose-dependent effect” and the inhibition (Mus musculus [36]) was “Tde”. The Vd [37] was 13.2 L/kg, the Cmax [38] was 1340 ng/mL and the clearance [39] was 10 mL/min/kg.
